Experimental data published in patent US20240358818A1, “ANTIBODY-INDUCING POLYPEPTIDE AND VACCINE” (priority 2021, published 2024).

Assays:
[1] = target: L452R mutant RBD epitope antigen (Severe acute respiratory syndrome coronavirus 2, UniProt P0DTC2, L452R)
[2] = target: T478K mutant RBD epitope antigen (Severe acute respiratory syndrome coronavirus 2, UniProt P0DTC2, T478K)

Sequence | reactivity to a homologous epitope of the mutant RBD compared with the wild-type RBD [1] | reactivity of mouse serum to the mutant RBD [2] | reactivity to the mutant RBD compared with reactivity to the wild-type RBD [2]
GGNYNYLYRLFRKSNLKPFERD [#10] | substantially equivalent | – | –
SNLKPFERDISTEIYQAGSTPC [#11] | – | sufficiently high reactivity | a little lower
